The series in a line: complex formation with iron ions in sun protection formulation, colour measurement (Minolta Chroma-Meter CR 300). The conditions noted are these: formulation + 0.01% iron (III) chloride hexahydrate + 0.09% additive, after 6 weeks.

Procedure: As a base formulation, the formulation of a sun protection agent with butyl methoxy dibenzoylmethane was used. This UVA filter forms an intensive red complex with traces of irons The complexing effect was studied using the following formulation:
The aqueous phase of the formulation was prepared by dissolving Phase B in Phase A until a homogeneous phase resulted. This was brought to a temperature of ca. 75-80° C. Phase C was prepared by dissolving Cosmedia Gel CC in the rest of Phase C until a homogeneous phase resulted. This was heated to ca. 75-80° C., followed by addition of phase D, and then Phase E was stirred in. The mixture of phases C, D, and E was added to the aqueous phase, and this mixture was stirred 5 min at 750 rpm. Then the formulation was cooled to room temperature while stirring at 200 rpm, during which at ca. 60° C. the mixture was homogenised 1 min at 11000 rpm with the aid of an Ultra Turrax stirrer.
The following additives were added to the described formulation:
The respective amount of iron (III) chloride hexahydrate, Carephos N (linear alkali polyphosphate), disodium EDTA, Utanit AF (acid diphosphate, for comparison), and [sic] Phoskadent Pyro (alkali diphosphate, for comparison) was worked into the aqueous phase and was removed from the water content [sic].
The evaluation was carried out by colour measurement. Using a Minolta Chroma-Meter CR 300, the colour status of the formulas was determined after 6 weeks. The measurements yielded values which allowed an objective comparison of the individual formulations. The measurements determined 3 values: L, a, and b. The L value describes lightness and darkness, with 0 representing perfect black and 100 perfect white. The a value describes the red-green value, and the b value describes the yellow-blue value. There are different prefix signs on the a and b values, in accordance with the present CIE Lab system, according to which no colour can be simultaneously reddish and greenish or simultaneously yellowish and bluish. Thus, −a represents green, +a represents red, −b represents blue, and +b represents yellow. […]

Turning to `O=C([O-])CN(CCN(CC(=O)[O-])CC(=O)O)CC(=O)O.[Na+].[Na+]` [Disodium EDTA], the “L value (difference to white standard)” value is −26.44, the “a value (red-green; difference to white standard)” value is given as “+5.18” and the “b value (yellow-blue; difference to white standard)” value is reported as “+4.10”.
